Test results as given in patent US20080292561A1, “Pyrazolo-Pyrimidine Derivatives as Anti-Inflammatory Agents” (Glaxo Group Limited, priority 2005, published 2008).

Each molecule was assayed on NFkB activity (assay: Glucocorticoid mediated transrepression of NFkB activity (A549 cells, ELAM promoter alkaline phosphatase reporter, TNFα)). Conditions: Homo sapiens, A549, 16 h, Human A549 lung epithelial cells, 3 ng/ml human recombinant TNFα, read-out: pIC50, transrepression of NFkB activity (converted).
Type: cell-based
From the text: Human A549 lung epithelial cells were engineered to contain a secreted placental alkaline phosphatase gene under the control of the distal region of the NFkB dependent ELAM promoter as previously described in Ray, K. P., Farrow, S., Daly, M., Talabot, F. and Searle, N. “Induction of the E-selectin promoter by interleukin 1 and tumour necrosis factor alpha, and inhibition by glucocorticoids” Biochemical Journal (1997) 328: 707-15.
Compounds were solvated and diluted in DMSO, and transferred directly into assay plates such that the final concentration of DMSO was 0.7%. Following the addition of cells (40K per well), plates were incubated for 1 hr prior to the addition of 3 ng/ml human recombinant TNFα. Following continued incubation for 16 hr, alkaline phosphatase activity was determined by measuring the change in optical density at 405 nm with time following the addition of 0.7 volumes of assay buffer (1 mg/ml p-nitrophenylphosphate dissolved in 1M diethanolamine, 0.28M NaCl, 0.5 mM MgCl2). Dose response curves were constructed from which EC50 values were estimated.

IC50, < 0.1 µM:
CCc1nc(NCC(O)(CC(C)(C)c2cccc3c2OCC3)C(F)(F)F)c2cnn(-c3ccccc3)c2n1 (stereo not drawn) [Example 5, 4-(2,3-Dihydro-1-benzofuran-7-yl)-2-{[(6-ethyl-1-phenyl-1H-pyrazolo[3,4-d]pyrimidin-4-yl)amino]methyl}-1,1,1-trifluoro-4-methyl-2-pentanol]
COc1ccc(F)cc1C(C)(C)CC(O)(CNc1nc(C)nc2c1cnn2-c1ccc(F)cc1F)C(F)(F)F (stereo not drawn) [Example 16, 2-({[1-(2,4-Difluorophenyl)-6-methyl-1H-pyrazolo[3,4-d]pyrimidin-4-yl]amino}methyl)-1,1,1-trifluoro-4-[5-fluoro-2-(methyloxy)phenyl]-4-methyl-2-pentanol]
COc1ccc(F)cc1C(C)(C)CC(O)(CNc1nc(C)nc2c1cnn2-c1cccc(C#N)c1)C(F)(F)F (stereo not drawn) [Example 27, 3-(4-{[4-[5-Fluoro-2-(methyloxy)phenyl]-2-hydroxy-4-methyl-2-(trifluoromethyl)pentyl]amino}-6-methyl-1H-pyrazolo[3,4-d]pyrimidin-1-yl)benzonitrile]
COc1ccc(F)cc1C(C)(C)CC(O)(CNc1nc(C)nc2c1cnn2-c1ccccc1)C(F)(F)F (stereo not drawn) [Example 13, 1,1,1-Trifluoro-4-[5-fluoro-2-(methyloxy)phenyl]-4-methyl-2-{[(6-methyl-1-phenyl-1H-pyrazolo[3,4-d]pyrimidin-4-yl)amino]methyl}-2-pentanol]
CCc1nc(NCC(O)(CC(C)(C)c2cccc3c2OCC3)C(F)(F)F)c2cnn(-c3cccnc3)c2n1 (stereo not drawn) [Example 9, 4-(2,3-Dihydro-1-benzofuran-7-yl)-2-({[6-ethyl-1-(3-pyridinyl)-1H-pyrazolo[3,4-d]pyrimidin-4-yl]amino}methyl)-1,1,1-trifluoro-4-methyl-2-pentanol]
CCOC(=O)c1cccc(-n2ncc3c(NCC(O)(CC(C)(C)c4cc(F)ccc4OC)C(F)(F)F)nc(C)nc32)c1 (stereo not drawn) [Example 22, Ethyl 3-(4-{[4-[5-fluoro-2-(methyloxy)phenyl]-2-hydroxy-4-methyl-2-(trifluoromethyl)pentyl]amino}-6-methyl-1H-pyrazolo[3,4-d]pyrimidin-1-yl)benzoate]
COc1ccc(F)cc1C(C)(C)CC(O)(CNc1nc(C)nc2c1cnn2-c1ccc(F)nc1)C(F)(F)F (stereo not drawn) [Example 20, 1,1,1-Trifluoro-4-[5-fluoro-2-(methyloxy)phenyl]-2-({[1-(6-fluoro-3-pyridinyl)-6-methyl-1H-pyrazolo[3,4-d]pyrimidin-4-yl]amino}methyl)-4-methyl-2-pentanol]
COc1ccc(F)cc1C(C)(C)CC(O)(CNc1nc(C)nc2c1cnn2-c1ccc(F)cc1)C(F)(F)F (stereo not drawn) [Example 15, 1,1,1-Trifluoro-4-[5-fluoro-2-(methyloxy)phenyl]-2-({[1-(4-fluorophenyl)-6-methyl-1H-pyrazolo[3,4-d]pyrimidin-4-yl]amino}methyl)-4-methyl-2-pentanol]
CCc1nc(NCC(O)(CC(C)(C)c2cccc3c2OCC3)C(F)(F)F)c2cnn(-c3ccsc3)c2n1 (stereo not drawn) [Example 12, 4-(2,3-Dihydro-1-benzofuran-7-yl)-2-({[6-ethyl-1-(3-thienyl)-1H-pyrazolo[3,4-d]pyrimidin-4-yl]amino}methyl)-1,1,1-trifluoro-4-methyl-2-pentanol]
CCc1nc(NCC(O)(CC(C)(C)c2cccc3c2OCC3)C(F)(F)F)c2cnn(-c3ccc(F)nc3)c2n1 (stereo not drawn) [Example 11, 4-(2,3-Dihydro-1-benzofuran-7-yl)-2-({[6-ethyl-1-(6-fluoro-3-pyridinyl)-1H-pyrazolo[3,4-d]pyrimidin-4-yl]amino}methyl)-1,1,1-trifluoro-4-methyl-2-pentanol]
CCc1nc(NCC(O)(CC(C)(C)c2cccc3c2OCC3)C(F)(F)F)c2cnn(-c3cccc(C(=O)OC)c3)c2n1 (stereo not drawn) [Example 30, Methyl 3-(4-{[4-(2,3-dihydro-1-benzofuran-7-yl)-2-hydroxy-4-methyl-2-(trifluoromethyl)pentyl]amino}-6-ethyl-1H-pyrazolo[3,4-d]pyrimidin-1-yl)benzoate]
COc1ccc(F)cc1C(C)(C)CC(O)(CNc1nc(C)nc2c1cnn2-c1ccsc1)C(F)(F)F (stereo not drawn) [Example 19, 1,1,1-Trifluoro-4-[5-fluoro-2-(methyloxy)phenyl]-4-methyl-2-({[6-methyl-1-(3-thienyl)-1H-pyrazolo[3,4-d]pyrimidin-4-yl]amino}methyl)-2-pentanol]
COc1ccc(F)cc1C(C)(C)CC(O)(CNc1nc(C)nc2c1cnn2-c1ccc(C#N)cc1)C(F)(F)F (stereo not drawn) [Example 21, 4-(4-{[4-[5-Fluoro-2-(methyloxy)phenyl]-2-hydroxy-4-methyl-2-(trifluoromethyl)pentyl]amino}-6-methyl-1H-pyrazolo[3,4-d]pyrimidin-1-yl)benzonitrile]
CCc1nc(NCC(O)(CC(C)(C)c2cccc3c2OCC3)C(F)(F)F)c2cnn(-c3ccc(F)cc3)c2n1 (stereo not drawn) [Example 7, 4-(2,3-Dihydro-1-benzofuran-7-yl)-2-({[6-ethyl-1-(4-fluorophenyl)-1H-pyrazolo[3,4-d]pyrimidin-4-yl]amino}methyl)-1,1-trifluoro-4-methyl-2-pentanol]
COc1ccc(F)cc1C(C)(C)CC(O)(CNc1nc(C)nc2c1cnn2-c1ccncc1)C(F)(F)F (stereo not drawn) [Example 18, 1,1,1-Trifluoro-4-[5-fluoro-2-(methyloxy)phenyl]-4-methyl-2-({[6-methyl-1-(4-pyridinyl)-1H-pyrazolo[3,4-d]pyrimidin-4-yl]amino}methyl)-2-pentanol]
CCc1nc(NCC(O)(CC(C)(C)c2cc(F)ccc2OC)C(F)(F)F)c2cnn(-c3ccccc3)c2n1 (stereo not drawn) [Example 26, 2-{[(6-Ethyl-1-phenyl-1H-pyrazolo[3,4-d]pyrimidin-4-yl)amino]methyl}-1,1,1-trifluoro-4-[5-fluoro-2-(methyloxy)phenyl]-4-methyl-2-pentanol]
Cc1nc(NCC(O)(CC(C)(C)c2cccc3c2OCC3)C(F)(F)F)c2cnn(-c3ccc(F)cc3)c2n1 (stereo not drawn) [Example 3, 4-(2,3-Dihydro-1-benzofuran-7-yl)-1,1,1-trifluoro-2-({[1-(4-fluorophenyl)-6-methyl-1H-pyrazolo[3,4-d]pyrimidin-4-yl]amino}methyl)-4-methyl-2-pentanol]
COC(=O)c1cccc(-n2ncc3c(NCC(O)(CC(C)(C)c4cc(F)ccc4OC)C(F)(F)F)nc(C)nc32)c1 (stereo not drawn) [Example 23, Methyl 3-(4-{[4-[5-fluoro-2-(methyloxy)phenyl]-2-hydroxy-4-methyl-2-(trifluoromethyl)pentyl]amino}-6-methyl-1H-pyrazolo[3,4-d]pyrimidin-1-yl)benzoate]
CCc1nc(NCC(O)(CC(C)(C)c2cccc3c2OCC3)C(F)(F)F)c2cnn(-c3ccncc3)c2n1 (stereo not drawn) [Example 10, 4-(2,3-Dihydro-1-benzofuran-7-yl)-2-({[6-ethyl-1-(4-pyridinyl)-1H-pyrazolo[3,4-d]pyrimidin-4-yl]amino}methyl)-1,1,1-trifluoro-4-methyl-2-pentanol]
CCc1nc(NCC(O)(CC(C)(C)c2cccc3c2OCC3)C(F)(F)F)c2cnn(-c3ccc(F)cc3F)c2n1 (stereo not drawn) [Example 8, 2-({[1-(2,4-Difluorophenyl)-6-ethyl-1H-pyrazolo[3,4-d]pyrimidin-4-yl]amino}methyl)-4-(2,3-dihydro-1-benzofuran-7-yl)-1,1,1-trifluoro-4-methyl-2-pentanol]
Cc1nc(NCC(O)(CC(C)(C)c2cccc3c2OCC3)C(F)(F)F)c2cnn(-c3ccc(F)cc3F)c2n1 (stereo not drawn) [Example 4, 2-({[1-(2,4-Difluorophenyl)-6-methyl-1H-pyrazolo[3,4-d]pyrimidin-4-yl]amino}methyl)-4-(2,3-dihydro-1-benzofuran-7-yl)-1,1,1-trifluoro-4-methyl-2-pentanol]
Cc1nc(NCC(O)(CC(C)(C)c2cccc3c2OCC3)C(F)(F)F)c2cnn(-c3ccccc3)c2n1 (stereo not drawn) [Example 1, 4-(2,3-Dihydro-1-benzofuran-7-yl)-1,1,1-trifluoro-4-methyl-2-{[(6-methyl-1-phenyl-1H-pyrazolo[3,4-d]pyrimidin-4-yl)amino]methyl}-2-pentanol]
Cc1nc(NCC(O)(CC(C)(C)c2cc(F)ccc2O)C(F)(F)F)c2cnn(-c3ccc(F)cc3F)c2n1 (single isomer, unassigned) [Example 25, 2-[3-({[1-(2,4-Difluorophenyl)-6-methyl-1H-pyrazolo[3,4-d]pyrimidin-4-yl]amino}methyl)-4,4,4-trifluoro-3-hydroxy-1,1-dimethylbutyl]-4-fluorophenol]
CCc1nc(NCC(O)(CC(C)(C)c2cccc3c2OCC3)C(F)(F)F)c2cnn(-c3cccc(C#N)c3)c2n1 (stereo not drawn) [Example 29, 3-(4-{[4-(2,3-Dihydro-1-benzofuran-7-yl)-2-hydroxy-4-methyl-2-(trifluoromethyl)pentyl]amino}-6-ethyl-1H-pyrazolo[3,4-d]pyrimidin-1-yl)benzonitrile]
